# Assay results from US11572590B2, “Methods for evaluating tumor cell spheroids using 3D microfluidic cell culture device” (Dana-Farber Cancer Institute, Inc., priority 2017, dated 2023).
# Read-outs that look alike come from different tables or passages of the source.
# Tests used:
# Assay in all cases: SelectScreen Kinase Profiling, single point inhibition and IC50 for off-target kinases
# Format in all cases: biochemical
# off-target kinases [1] = biological target: T1, off-target kinases (Homo sapiens, UniProt Q04771); conditions: ACVR1 (ALK2), LanthaScreen Binding
# T1 sequence (Q04771 21-509): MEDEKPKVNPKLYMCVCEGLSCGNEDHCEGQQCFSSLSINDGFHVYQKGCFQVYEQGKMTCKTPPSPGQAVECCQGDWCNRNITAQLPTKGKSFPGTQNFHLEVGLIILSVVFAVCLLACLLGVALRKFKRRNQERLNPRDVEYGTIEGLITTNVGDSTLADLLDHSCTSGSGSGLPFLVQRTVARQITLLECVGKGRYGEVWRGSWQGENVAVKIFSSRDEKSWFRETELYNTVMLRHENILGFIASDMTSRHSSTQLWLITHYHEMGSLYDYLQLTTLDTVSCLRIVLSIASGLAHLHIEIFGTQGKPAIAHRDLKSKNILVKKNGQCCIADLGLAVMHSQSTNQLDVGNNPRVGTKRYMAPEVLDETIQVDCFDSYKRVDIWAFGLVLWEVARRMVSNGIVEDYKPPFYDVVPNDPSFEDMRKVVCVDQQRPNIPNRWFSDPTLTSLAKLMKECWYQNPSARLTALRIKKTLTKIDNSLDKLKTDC
# off-target kinases [2] = biological target: off-target kinases (Homo sapiens, UniProt P41240); conditions: CSK, ZLYTE, ATP Km app
# off-target kinases [3] = biological target: off-target kinases (Homo sapiens, UniProt P00519, Q252H); conditions: ABL1 Q252H, LanthaScreen Binding
# off-target kinases [4] = biological target: off-target kinases (Homo sapiens, UniProt P19784); conditions: CSNK2A2 (CK2 alpha 2), ZLYTE, ATP Km app
# off-target kinases [5] = biological target: off-target kinases (Homo sapiens, UniProt P37173); conditions: TGFBR2, LanthaScreen Binding
# off-target kinases [6] = biological target: T2, off-target kinases (Homo sapiens, UniProt Q16832, N456S); conditions: DDR2 N456S, mutant y, LanthaScreen Binding
# T2 sequence (Q16832 22-855 N456S): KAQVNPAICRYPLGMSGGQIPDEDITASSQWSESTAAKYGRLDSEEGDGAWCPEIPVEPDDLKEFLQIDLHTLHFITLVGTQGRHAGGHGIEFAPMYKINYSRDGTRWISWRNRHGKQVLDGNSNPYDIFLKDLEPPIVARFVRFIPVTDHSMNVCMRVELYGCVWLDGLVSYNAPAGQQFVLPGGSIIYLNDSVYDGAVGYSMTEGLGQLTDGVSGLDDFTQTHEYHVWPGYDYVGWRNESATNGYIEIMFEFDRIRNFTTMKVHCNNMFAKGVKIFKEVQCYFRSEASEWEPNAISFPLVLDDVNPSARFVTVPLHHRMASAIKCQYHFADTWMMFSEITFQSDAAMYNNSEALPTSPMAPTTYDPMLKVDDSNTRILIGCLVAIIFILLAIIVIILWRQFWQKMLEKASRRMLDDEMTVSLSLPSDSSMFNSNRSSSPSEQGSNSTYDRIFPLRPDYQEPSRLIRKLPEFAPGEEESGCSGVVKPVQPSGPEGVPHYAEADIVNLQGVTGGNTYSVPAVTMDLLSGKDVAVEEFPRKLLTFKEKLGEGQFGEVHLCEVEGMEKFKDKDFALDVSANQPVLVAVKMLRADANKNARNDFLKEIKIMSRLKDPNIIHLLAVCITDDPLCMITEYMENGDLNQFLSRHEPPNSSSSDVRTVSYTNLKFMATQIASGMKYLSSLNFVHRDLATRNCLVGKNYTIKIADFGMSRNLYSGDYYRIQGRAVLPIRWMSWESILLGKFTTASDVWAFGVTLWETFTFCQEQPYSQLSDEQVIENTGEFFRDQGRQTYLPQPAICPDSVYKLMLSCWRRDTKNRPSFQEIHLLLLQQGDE
# Sequence of off-target kinases (Homo sapiens, UniProt P37173) (P37173 23-567): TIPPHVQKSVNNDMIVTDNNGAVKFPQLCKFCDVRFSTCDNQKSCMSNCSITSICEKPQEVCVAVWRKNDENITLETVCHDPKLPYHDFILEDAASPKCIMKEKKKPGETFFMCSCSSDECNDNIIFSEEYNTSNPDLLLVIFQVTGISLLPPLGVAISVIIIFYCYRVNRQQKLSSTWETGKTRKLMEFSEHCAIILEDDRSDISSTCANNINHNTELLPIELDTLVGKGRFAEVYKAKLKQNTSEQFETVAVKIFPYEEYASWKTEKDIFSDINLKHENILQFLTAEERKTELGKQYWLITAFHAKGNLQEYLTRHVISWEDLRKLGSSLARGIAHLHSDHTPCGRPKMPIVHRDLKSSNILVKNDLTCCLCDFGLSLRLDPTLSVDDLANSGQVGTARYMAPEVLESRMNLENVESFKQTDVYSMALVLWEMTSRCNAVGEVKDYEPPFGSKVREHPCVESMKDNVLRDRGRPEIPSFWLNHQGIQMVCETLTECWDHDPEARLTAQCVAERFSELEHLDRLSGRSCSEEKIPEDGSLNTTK
# Sequence of off-target kinases (Homo sapiens, UniProt P41240) (P41240 whole entry): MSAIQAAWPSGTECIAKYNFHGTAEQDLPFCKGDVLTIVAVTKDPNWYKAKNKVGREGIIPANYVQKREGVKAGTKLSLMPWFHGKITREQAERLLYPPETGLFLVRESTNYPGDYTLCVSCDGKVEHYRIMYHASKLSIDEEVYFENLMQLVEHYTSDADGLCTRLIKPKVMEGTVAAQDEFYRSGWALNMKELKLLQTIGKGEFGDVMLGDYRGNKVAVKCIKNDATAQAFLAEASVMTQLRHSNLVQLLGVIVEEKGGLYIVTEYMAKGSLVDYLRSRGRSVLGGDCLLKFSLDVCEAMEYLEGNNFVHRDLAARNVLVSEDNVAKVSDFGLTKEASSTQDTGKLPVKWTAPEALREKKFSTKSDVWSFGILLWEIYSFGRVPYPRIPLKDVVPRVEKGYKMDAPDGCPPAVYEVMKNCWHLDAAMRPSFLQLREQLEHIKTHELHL
# Sequence of off-target kinases (Homo sapiens, UniProt P19784) (P19784 whole entry): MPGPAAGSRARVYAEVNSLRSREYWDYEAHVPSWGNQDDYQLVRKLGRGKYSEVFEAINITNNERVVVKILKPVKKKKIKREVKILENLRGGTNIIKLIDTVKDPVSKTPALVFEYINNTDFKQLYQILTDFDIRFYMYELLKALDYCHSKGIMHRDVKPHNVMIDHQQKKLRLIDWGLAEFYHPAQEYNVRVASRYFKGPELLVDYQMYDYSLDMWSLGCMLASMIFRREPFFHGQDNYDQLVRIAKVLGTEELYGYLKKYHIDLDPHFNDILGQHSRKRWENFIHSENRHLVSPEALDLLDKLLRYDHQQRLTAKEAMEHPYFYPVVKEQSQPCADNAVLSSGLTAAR
structure (smiles),measurement,setting,value
"N#Cc1cc(-c2ncnc(Nc3ccc(N4CCN(C5COC5)CC4)cc3)n2)ccc1OC1CCOCC1 [Compound 1, 5-(4-((4-(4-(oxetan-3-yl)piperazin-1-yl)phenyl)amino)-1,3,5-triazin-2-yl)-2-((tetrahydro-2H-pyran-4-yl)oxy)benzonitrile]",inhibition,off-target kinases [1]; read-out: % Inhibition 1,85%
same,inhibition,off-target kinases [1]; read-out: % Inhibition 2,84%
same,inhibition,off-target kinases [1]; read-out: % Inhibition Avg,84%
same,inhibition,off-target kinases [2]; read-out: % Inhibition 1,13%
same,inhibition,off-target kinases [2]; read-out: % Inhibition 2,10%
same,inhibition,off-target kinases [2]; read-out: % Inhibition Avg,12%
same,inhibition,off-target kinases [3]; read-out: % Inhibition 1,52%
same,inhibition,off-target kinases [3]; read-out: % Inhibition 2,41%
same,inhibition,off-target kinases [3]; read-out: % Inhibition Avg,46%
same,inhibition,off-target kinases [4]; read-out: % Inhibition 1,32%
same,inhibition,off-target kinases [4]; read-out: % Inhibition 2,30%
same,inhibition,off-target kinases [4]; read-out: % Inhibition Avg,31%
same,inhibition,off-target kinases [5]; read-out: % Inhibition 1,92%
same,inhibition,off-target kinases [5]; read-out: % Inhibition 2,95%
same,inhibition,off-target kinases [5]; read-out: % Inhibition Avg,93%
same,inhibition,off-target kinases [6]; read-out: % Inhibition 1,33%
same,inhibition,off-target kinases [6]; read-out: % Inhibition 2,42%
same,inhibition,off-target kinases [6]; read-out: % Inhibition Avg,37%
